Measured values: patent publication US10253002B2, “Compounds and methods of treating infections” (Neoculi Pty Ltd., priority 2013, dated 2019)
≈ marks a conversion by molar mass, not a printed value.

Experiments:
MRSA = experiment: Broth microdilution MIC, Example 7 (NCL812 and analogues); type: cell-based, Staphylococcus aureus
Procedure, shortened: (§1)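 Values are MICs in μg/ml from broth microdilution per CLSI, with growth scored against a drug-free well.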

VRE = experiment: as above; type: cell-based, Enterococcus spp.
Procedure, shortened: as §1

Escherichia coli = experiment: as above; type: cell-based; details: E. coli, 24 hours
Pseudomonas aeruginosa = experiment: as above; type: cell-based; details: P. aeruginosa, 24 hours
[1] = system: Staphylococcus pseudintermedius isolates (MSSP and MRSP); experiment: Disk diffusion and Epsilometer susceptibility testing, Example 6; type: cell-based; details: 13 MRSP isolates
[2] = MRSA 1, 24 hours, duplicate lines per compound
[3] = MRSA 2, 24 hours, duplicate lines per compound
[4] = VRE 1, 24 hours, duplicate lines per compound
[5] = VRE 2, 24 hours, duplicate lines per compound

Row | MIC (μg/ml) at 24 hours, MRSA 1 (MRSA; [2]) [µg/mL] | MIC (μg/ml) at 24 hours, MRSA 2 (MRSA; [3]) [µg/mL] | MIC (μg/ml) at 24 hours, VRE 1 (VRE; [4]) [µg/mL] | MIC (μg/ml) at 24 hours, VRE 2 (VRE; [5]) [µg/mL] | MIC (μg/ml) at 24 hours, E. coli (Escherichia coli; duplicate lines per compound) [µg/mL] | MIC (μg/ml) at 24 hours, P. aeruginosa (Pseudomonas aeruginosa; duplicate lines per compound) [µg/mL] | MIC (μg/ml) at 24 hours, MRSA 1 (MRSA; MRSA 1, 24 hours) [µg/mL] | MIC (μg/ml) at 24 hours, MRSA 2 (MRSA; MRSA 2, 24 hours) [µg/mL] | MIC (μg/ml) at 24 hours, VRE 1 (VRE; VRE 1, 24 hours) [µg/mL] | MIC (μg/ml) at 24 hours, VRE 2 (VRE; VRE 2, 24 hours) [µg/mL] | MIC (μg/ml) at 24 hours, E. coli (Escherichia coli) [µg/mL] | MIC (μg/ml) at 24 hours, P. aeruginosa (Pseudomonas aeruginosa) [µg/mL] | Compound | MRSP isolates susceptible [1] [%]
1 | 32 | 32 | 64 | 32 | >128 | >128 | – | – | – | – | – | – | CC(O)Nc1cc(Cl)ccc1C=NNC(=N)NN=Cc1ccc(Cl)cc1NC(C)O.Cl (stereo not shown) [NCL 168] | –
2 | 32 (≈ 87.9 µM) | 64 (≈ 176 µM) | 32 (≈ 87.9 µM) | 32 (≈ 87.9 µM) | >128 | >128 | – | – | – | – | – | – | N=C(NN=Cc1ccc(Cl)cc1N)NN=Cc1ccc(Cl)cc1N [NCL 169] | –
3 | >128 | >128 | >128 | >128 | >128 | >128 | – | – | – | – | – | – | CC(=O)Nc1cc(Cl)ccc1C=NNC(=N)NN=Cc1ccc(Cl)cc1NC(C)=O [NCL 170] | –
4 | – | – | – | – | – | – | 128 | 64 | >128 | >128 | >128 | >128 | CC(=NNC(=N)NN=C(C)c1ccccn1)c1ccccn1.Cl [NCL 172] | –
5 | – | – | – | – | – | – | 16 | 16 | 4 | 32 | >128 | >128 | CC(=NNC(=N)NN=C(C)c1ccc(Cl)cc1O)c1ccc(Cl)cc1O.Cl [NCL 173] | –
6 | – | – | – | – | – | – | 32 | 32 | 4 | 32 | >128 | >128 | Cl.N=C(NN=Cc1ccc(Cl)cc1O)NN=Cc1ccc(Cl)cc1O [NCL 174] | –
7 | – | – | – | – | – | – | 64 | >128 | 32 | >128 | >128 | >128 | Cl.N=C(N/N=C/c1ccc(Cl)nc1)N/N=C/c1ccc(Cl)nc1 [NCL 175] | –
8 | – | – | – | – | – | – | >128 | >128 | >128 | >128 | >128 | >128 | Cl.N=C(NN=Cc1cccnc1N)NN=Cc1cccnc1N [NCL 176] | –
9 | – | – | – | – | – | – | 8 | 8 | 4 | 8 | >128 | >128 | Cl.N=C(NN=C(CO)c1ccc(Cl)cc1)NN=C(CO)c1ccc(Cl)cc1 [NCL 177] | –
10 | – | – | – | – | – | – | – | – | – | – | – | – | CC1(C)S[C@@H]2[C@H](NC(=O)[C@H](N)c3ccc(O)cc3)C(=O)N2[C@H]1C(=O)O [amoxicillin] | 23
